Data taken from the supplement of paper PMC10307832.

Experiments:
Test in all cases: relative viability (nuclei count vs DMSO), 5 days (fraction); higher = more cells survive
[1] = compound: CCN1C(=O)C2=CC(=C(N=C2N(C1=O)C3CC3)N)C(=O)N + CC(=O)Nc1cccc(-n2c(=O)n(C3CC3)c(=O)c3c(Nc4ccc(I)cc4F)n(C)c(=O)c(C)c32)c1 [Trametinib] (partner 0.02 µM)
Method in brief: (§1)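 Relative viability divides the nuclei count in treated wells by that in vehicle wells. Lung cancer cell lines were seeded in 1536-well plates, dosed by pin tool the next day, and fixed and stained after 5 days in one step with final 0.05% Triton X-100, 1% formaldehyde and 1 ug/ml Hoechst. Dosing was a single drug or a fixed anchor-drug dose plus five library-drug doses (not always all listed) in √10 steps, and values are medians of duplicate plates imaged at 4×.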

[2] = compound: CCN1C(=O)C2=CC(=C(N=C2N(C1=O)C3CC3)N)C(=O)N + CC1(C)CCC(c2ccc(Cl)cc2)=C(CN2CCN(c3ccc(C(=O)NS(=O)(=O)c4ccc(N[C@H](CCN5CCOCC5)CSc5ccccc5)c(S(=O)(=O)C(F)(F)F)c4)cc3)CC2)C1 [Navitoclax] (partner 0.5 µM)
Method in brief: as §1

[3] = compound: CCN1C(=O)C2=CC(=C(N=C2N(C1=O)C3CC3)N)C(=O)N + COc1cc2c(Oc3ccc(NC(=O)C4(C(=O)Nc5ccc(F)cc5)CC4)cc3F)ccnc2cc1OCCCN1CCOCC1 [Foretinib] (partner 0.25 µM)
Method in brief: as §1

[4] = compound: CCN1C(=O)C2=CC(=C(N=C2N(C1=O)C3CC3)N)C(=O)N + CS(=O)(=O)CCNCc1ccc(-c2ccc3ncnc(Nc4ccc(OCc5cccc(F)c5)c(Cl)c4)c3c2)o1 [Lapatinib] (partner 2 µM)
Method in brief: as §1

[5] = compound: CCN1C(=O)C2=CC(=C(N=C2N(C1=O)C3CC3)N)C(=O)N + Cc1nc(Nc2ncc(C(=O)Nc3c(C)cccc3Cl)s2)cc(N2CCN(CCO)CC2)n1 [Dasatinib] (partner 0.075 µM)
Method in brief: as §1

Row | Cell Line | relative viability ([1]; first compound 0.253 µM) | relative viability ([1]; first compound 0.8 µM) | relative viability ([1]; first compound 2.53 µM) | relative viability ([1]; first compound 8 µM) | relative viability ([2]; first compound 0.253 µM) | relative viability ([2]; first compound 8 µM) | relative viability ([3]; first compound 0.253 µM) | relative viability ([3]; first compound 0.8 µM) | relative viability ([3]; first compound 2.53 µM) | relative viability ([3]; first compound 8 µM) | relative viability ([4]; first compound 0.253 µM) | relative viability ([4]; first compound 8 µM) | relative viability ([5]; first compound 0.253 µM) | relative viability ([5]; first compound 0.8 µM) | relative viability ([5]; first compound 2.53 µM) | relative viability ([5]; first compound 8 µM) | relative viability ([2]; first compound 0.8 µM) | relative viability ([2]; first compound 2.53 µM) | relative viability ([4]; first compound 0.8 µM) | relative viability ([4]; first compound 2.53 µM)
1 | LCLC-97TM1 | 0.194 | 0.217 | 0.203 | 0.182 | 0.431 | 0.53 | 0.869 | 0.866 | 0.86 | 1.1 | 1.01 | 1.05 | 0.793 | 0.948 | 0.855 | 0.883 | – | – | – | –
2 | LK-2 | 0.756 | 0.715 | 0.727 | 0.795 | 0.934 | 1.06 | 1.03 | 1.11 | 1.05 | 1.6 | 0.89 | 1.09 | 0.312 | 0.294 | 0.303 | 0.221 | 0.937 | 0.976 | 0.878 | 0.995
3 | LOU-NH91 | 0.791 | 0.76 | 0.772 | 0.772 | 0.656 | 0.689 | 0.847 | 0.855 | 0.978 | 0.916 | 0.869 | 0.766 | 0.499 | 0.526 | 0.54 | 0.527 | 0.68 | 0.701 | 0.732 | 0.83
4 | LU99A | 0.504 | 0.545 | 0.56 | 0.549 | 0.778 | 0.875 | 0.732 | 0.8 | 0.789 | 0.857 | 1.04 | 1.09 | 0.541 | 0.548 | 0.528 | 0.511 | 0.741 | 0.747 | 0.984 | 0.984
5 | LXF-289 | 0.636 | 0.658 | 0.661 | 0.665 | 0.93 | 0.95 | 0.995 | 1 | 0.966 | 1 | 0.867 | 0.89 | 0.229 | 0.348 | 0.28 | 0.212 | 0.951 | 1.01 | 0.951 | 0.938
6 | NCI-H23 | 0.385 | 0.416 | 0.365 | 0.391 | 0.772 | 0.769 | 0.942 | 1.13 | 1.07 | 1.11 | 1.21 | 1.11 | 0.786 | 0.746 | 0.762 | 0.656 | 0.924 | 0.659 | 1.08 | 1.06
7 | NCI-H322M | 0.522 | 0.457 | 0.469 | 0.586 | 1.06 | 1.13 | 0.953 | 0.958 | 0.988 | 1.1 | 0.585 | 0.592 | 0.275 | 0.224 | 0.256 | 0.248 | 1.12 | 1.14 | 0.536 | 0.562
8 | NCI-H460 | 0.226 | 0.13 | 0.13 | 0.13 | 1.17 | 1.14 | 0.992 | 1.04 | 0.979 | 0.943 | 1.04 | 1.02 | 0.5 | 0.541 | 0.592 | 0.452 | 1.08 | 1.07 | 1.07 | 0.902
9 | NCI-H520 | 0.65 | 0.692 | 0.657 | 0.676 | 1.04 | 1.41 | 0.544 | 0.709 | 0.827 | 0.899 | 0.898 | 0.941 | 0.17 | 0.222 | 0.222 | 0.31 | 1.22 | 1.02 | 0.907 | 0.957
10 | NCI-H596 | 0.673 | 0.742 | 0.787 | 0.907 | 1.07 | 1.17 | 0.956 | 0.94 | 0.788 | 0.962 | 1.07 | 1.06 | 0.625 | 0.569 | 0.519 | 0.548 | 0.904 | 0.999 | 1.02 | 1.09
11 | NCI-H647 | 0.521 | 0.442 | 0.418 | 0.389 | 1.18 | 1.08 | 1.23 | 1.14 | 1.07 | 1.23 | 1.09 | 1.13 | 0.182 | 0.176 | 0.172 | 0.16 | 1.25 | 1.14 | 1.13 | 0.992
12 | NCI-H727 | 0.39 | 0.436 | 0.422 | 0.386 | 0.463 | 0.596 | 1.06 | 0.889 | 0.888 | 1.23 | 0.925 | 0.857 | 0.352 | 0.323 | 0.333 | 0.422 | 0.51 | 0.484 | 0.69 | 0.814
13 | NCI-H838 | 0.55 | 0.573 | 0.511 | 0.474 | 1.21 | 1.09 | 1.07 | 0.989 | 0.868 | 0.926 | 0.948 | 0.896 | 0.29 | 0.296 | 0.316 | 0.265 | 1.19 | 1.13 | 1.02 | 0.916
14 | NCI-H1355 | 0.429 | 0.387 | 0.383 | 0.438 | 0.969 | 0.921 | 0.996 | 1.01 | 0.963 | 0.937 | 1.08 | 1.01 | 0.728 | 0.717 | 0.701 | 0.725 | 0.987 | 0.861 | 1.06 | 0.998
15 | NCI-H1395 | 1.13 | 0.94 | 1.04 | 1.07 | 1.1 | 1.73 | 1.01 | 0.868 | 0.952 | 0.991 | 1.04 | 0.893 | 0.395 | 0.392 | 0.405 | 0.405 | 1.34 | 1.13 | 0.915 | 1.1
16 | NCI-H1437 | 0.609 | 0.468 | 0.527 | 0.406 | 1.12 | 1.12 | 1.23 | 1.21 | 1.19 | 1.21 | 0.818 | 0.838 | 0.404 | 0.367 | 0.464 | 0.418 | 1.09 | 1.07 | 0.794 | 0.829
17 | NCI-H1650 | 0.572 | 0.571 | 0.563 | 0.611 | 1.1 | 1.19 | 0.913 | 1.15 | 0.955 | 1.12 | 0.337 | 0.904 | 0.279 | 0.264 | 0.308 | 0.329 | 1.25 | 1.1 | 0.815 | 0.746
18 | NCI-H1651 | 0.784 | 0.835 | 0.778 | 0.819 | 0.996 | 1.03 | 0.921 | 0.838 | 0.656 | 0.772 | 0.749 | 0.834 | 0.454 | 0.465 | 0.357 | 0.381 | 1.27 | 0.969 | 0.78 | 0.936
19 | NCI-H1666 | 0.906 | 0.778 | 0.83 | 0.815 | 0.991 | 0.867 | – | 0.857 | 0.948 | 1.04 | 0.831 | 0.736 | – | 0.828 | 0.877 | 0.762 | 0.942 | 0.645 | 0.495 | 0.633
20 | NCI-H1734 | 0.742 | 0.593 | 0.609 | 0.74 | 0.737 | 0.888 | 0.835 | 0.764 | 0.745 | 1.01 | 1.08 | 1.1 | 0.437 | 0.459 | 0.425 | 0.453 | 0.813 | 0.778 | 1.07 | 1.03
21 | NCI-H1755 | 0.771 | 0.762 | 0.746 | 0.716 | 1.03 | 0.938 | 0.974 | 0.887 | 0.914 | 0.875 | 0.999 | 1.02 | 0.411 | 0.506 | 0.459 | 0.45 | 0.936 | 0.98 | 1.09 | 0.779
22 | NCI-H1793 | 0.428 | 0.387 | 0.433 | 0.445 | 0.701 | 0.404 | – | 0.612 | 0.575 | 0.679 | 0.635 | 0.636 | – | 0.434 | 0.32 | 0.419 | 0.385 | – | 0.819 | –
23 | NCI-H1915 | 0.297 | 0.294 | 0.305 | 0.337 | 0.738 | 0.711 | 1.05 | 1.09 | 1.11 | 1.04 | 0.952 | 0.922 | 0.294 | 0.307 | 0.312 | 0.285 | 0.799 | 0.752 | 0.942 | 0.974
24 | NCI-H1944 | 0.451 | 0.445 | 0.353 | 0.427 | 1.02 | 1.02 | 0.976 | 0.91 | 0.843 | 0.949 | 0.873 | 0.756 | 0.22 | 0.217 | 0.213 | 0.217 | 1.04 | 0.978 | 0.679 | 0.818
25 | NCI-H1975 | 0.343 | 0.335 | 0.335 | 0.336 | 1.31 | 1.02 | 1.02 | 0.916 | 0.895 | 0.951 | 0.841 | 0.91 | 0.381 | 0.341 | 0.356 | 0.268 | 1.06 | 1.19 | 0.844 | 0.868
26 | NCI-H1993 | 0.587 | 0.576 | 0.511 | 0.491 | 0.994 | 0.757 | 0.819 | 0.751 | 0.625 | 0.822 | 0.782 | 0.823 | 0.511 | 0.49 | 0.477 | 0.497 | 0.875 | 0.797 | 0.817 | 0.815
27 | NCI-H2009 | 0.274 | 0.271 | 0.262 | 0.281 | 1.15 | 1.08 | 1.2 | 1.18 | 1.2 | 1.12 | 0.93 | 0.847 | 0.289 | 0.291 | 0.275 | 0.259 | 1.14 | 1.11 | 1.23 | 0.892
